Source: patent US6399570B1, “Antimicrobial/endotoxin neutralizing polypeptide” (priority 1999, dated 2002)
Where a SMILES comes first, the peptide text is derived from it.

Tests used:
Lipid A = assay: Limulus ELISA, ENC50 against Lipid A; type: biochemical, E. coli K12; conditions: endotoxin 200 EU/ml; mean +/− SD
Description: (§1) The peptide-mediated inhibition of endotoxin-induced Limulus amebocyte lysate (LAL) coagulation was measured with a sensitive LAL assay (Zhang et al., J. Clin. Microbiol. 32: 416-422 (1994)). Limulus ELISA is an endotoxin assay based on activation of the LAL coagulation by endotoxin and detection of the generated peptide-C immunoreactivity with an ELISA using a monoclonal antibody to the polypeptide. Endotoxin was defined to be neutralized when it lost its ability to activate the LAL enzymes. The 50% endotoxin-neutralizing concentration (ENC50) reflects the potency of an anti-endotoxin agent; a low ENC50 indicates high potency. Table 2 lists the determined ENC50 value of each anti-endotoxin agent against lipid A and four different types of LPS. The potency of each anti-endotoxin agent varied depending on the type of endotoxin. […] The only difference between the sequence of LF-33 and LF-27 is that LF-27 lacks the first six residues (GRRRRS) at the N-terminus of LF-33. Remarkably, this deletion led to dramatic loss of the endotoxin-neutralizing capacity of the polypeptide in this assay. Binding of serum proteins to endotoxin neutralizes the endotoxin activity in this assay by preventing endotoxin from activating LAL (Emancipator et al., Infect. Immun. 60: 596-601 (1992)).
(§2) LPS. […] LPS (purity >99%) from Neisseria meningitidis was prepared from the group B strain #6275 and its potency was 25 EU/ng. […] The potency of the above endotoxin was determined with the Limulus enzyme-linked immunosorbent assay (ELISA, 43) in comparison with US Pharmacopeia reference standard endotoxin EC-5.
(§3) Briefly, 25 μl endotoxin solution (200 EU/ml) was mixed with an equal volume of test materials in a series of two-fold dilution in 0.15 M NaCl in a sterile 96-well tissue culture plate (Nunc A/S, Roskilde, Denmark), and incubated at 37° C. for 1 h in a dry-air incubator. […] The endotoxin activity was then quantified with the use of Limulus ELISA (Zhang et al., J. Clin. Microbiol. 32: 416-422 (1994)). […] The high sensitivity of the assay allowed for very low levels of the endotoxin activity to be detected. […]

P. aer. LPS = assay: Limulus ELISA, ENC50 against P. aer. LPS; type: biochemical, Pseudomonas aeruginosa; conditions: endotoxin 200 EU/ml; mean +/− SD
Description: as §1, §2, §3

E. coli LPS = assay: Limulus ELISA, ENC50 against E. coli LPS; type: biochemical, Escherichia coli O113:H10; conditions: endotoxin 200 EU/ml; mean +/− SD
Description: as §1, §2, §3

N. min. LPS = assay: Limulus ELISA, ENC50 against N. min. LPS; type: biochemical, Neisseria meningitidis; conditions: endotoxin 200 EU/ml; mean +/− SD
Description: as §1, §2, §3

S. abortus LPS = assay: Limulus ELISA, ENC50 against S. abortus LPS; type: biochemical, Salmonella abortus equi; conditions: endotoxin 200 EU/ml; mean +/− SD
Description: as §1, §2, §3

RAW 264.7 cells = assay: Endotoxin-induced TNF-α secretion by RAW264.7 cells in culture medium containing 10% human serum; type: cell-based, murine; conditions: polypeptide 2.5 μM, endotoxin 10 ng/ml
Description: To test the suppression of endotoxin-induced TNF-α secretion under more physiological conditions, LF-33 or polymyxin B was added to human serum (final concentration 10%) before the addition of endotoxin.
Endotoxin induced TNF-α secretion by RAW 264.7 cells. The murine macrophage cell line RAW 264.7 was obtained from the American Type Culture Collection (ATCC, Rockville, Md.) and maintained as described previously (Jeremy, B., Immunol. Today. 16: 417-419 (1995)). The concentration of endotoxin in all buffers and media was controlled to below 0.1 EU/ml. The following protocol was essentially described before and used here with minor modifications (Kelly et al., Infect. Immun. 59: 4491-6 (1991)). Each well of a 96-well tissue culture plate was seeded with 150 μl RAW 264.7 cells at 10^6 cells per ml DMEM (Life Technologies, Gaithersburg, Md.) supplemented with 10% heat-treated fetal bovine serum (Life Technologies), 25 mM HEPES (N-2-hydroxyethylpiperazine-N′-2-ethanesulfonic acid; pH 7.3), penicillin (60 U/ml) and streptomycin (60 μg/ml). After overnight incubation at 37° C. in a 6% CO2 incubator, the medium was aspirated and cells washed with 3-changes of endotoxin-free Hank's balanced salt solution (HBSS, Life Technologies) supplemented with 25 mM HEPES (pH 7.3). Control endotoxin (10 ng/ml) and test materials were prepared in HBSS-HEPES. After incubation in a 37° C. water bath for 1 h, 0.2 ml of these solutions was added in triplicate to each well and incubated at 37° C. for 6 h. The supernatants were then collected and stored at −70° C. before the measurement of […] activity. Controls included HBSS-HEPES and test materials in the absence of endotoxin. TNF-α activity of the medium and test materials was below […]. The human serum used in some experiments was a pool from normal donors.
Determination of TNF activity. TNF-α activity in the culture supernatant was determined based on its cytotoxicity for the mouse fibrosarcoma cell line WEHI 164 cells (ATCC). […] The antibody at 1:100 dilution completely eliminated the cytotoxicity in the culture supernatant of the RAW 264.7 cell stimulated by endotoxin and in the mouse sera collected 1 h after intraperitoneal injection of endotoxin.
Briefly, the 96-well tissue culture plates were seeded with 100 μl WEHI164 cells (5×10^4 cells) in RPMI-1640 medium (Life Technologies) containing 10% heat-treated fetal bovine serum, 25 mM HEPES (pH 7.3), penicillin (60 U/ml), streptomycin (60 μg/ml), and actinomycin D (4 μg/ml). […] Cell viability was then determined by the addition of 10 μl MTT (Thiazolyl blue, Sigma) stock solution (5 mg/ml in saline) to each well, and the incubation was allowed to continue for 6 h. […] The plate was read at 570 nm with a reference of 630 nm in a microplate reader. […]

E. coli 0111 [1] = assay: Antimicrobial assay for LF polypeptides (CFU after 6 h); type: cell-based
Description: The antimicrobial activity of the catheptic polypeptide was measured against a clinical isolate, E. coli 0111. […] The 6 kDa catheptic fragment of LF is therefore at least as potent as twelve other natural antimicrobial polypeptides (H. G. Boman, J. Marsh, and J. A. Goode, Eds., Antimicrobial Peptides, (John Wiley & Sons Ltd., New York, N.Y., 1994)), and can function as a bactericidal agent. […] At 100 μM polypeptide, the number of viable bacteria was more than 1,000-fold greater in the cultures treated with the pepsinolytic versus cathepsinolytic fragment (FIG. 1). The basis for this difference in potency may be related to the additional, internal, pepsin cleavages which occur between the two disulfide bridges in the 6 kDa domain (Mann et al., J. Biol. Chem. 269: 23661-7 (1994); Bellamy et al., Biochim. Biophys. Acta 1121: 130-6 (1992)).
Antimicrobial assay for LF polypeptides. Cultures of E. coli 0111 (American Type Culture Collection #43887) were grown at 37° C. in 1% bactopeptone (BP) (Difco) in Dulbecco's phosphate buffered saline (dPBS) (Mediatech) with aeration by shaking (225 rpm). overnight cultures were diluted 8,000-fold in 2×concentrated BP/dPBS and mixed with an equal volume of sterile endotoxin-free distilled water containing serial dilutions of the polypeptide to be tested. The final assay volume was […] in a 12 mm×75 mm polypropylene tube (Falcon) with an ultimate dilution of the overnight cultures of 1:16,000 to yield an original inoculum of ˜1-2×10^4 CFU/ml. The final assay medium was physiological in ionic strength, 1% bactopeptone in 1×Dulbecco's phosphate buffered saline. Cultures were grown for 6 h at 37° C. with aeration as above and then cell density determined by measuring CFU/ml for each assay culture tube. Serial dilutions of each assay tube were plated on Luria Broth bactoagar and incubated for 24 h at 37° C. prior to counting colonies. All assays were done in triplicate and the standard deviation calculated for each concentration of inhibitor. Culture density at the beginning and end of the 6 h growth period was also determined from triplicate cultures lacking any polypeptide inhibitors. Untreated cultures typically grew to 1-2×10^8 CFU/ml in 6 h under these assay conditions.

E. coli 0111 [2] = conditions: Bellamy et al. 1992; cited from earlier work
E. coli 0111 [3] = assay: Dose response of E. coli 0111 cells in the presence of LF polypeptides; type: cell-based; conditions: E. coli 0111, 5 hours, OD 600 nm
Description: To compare the activity of the above described 33-mer which contains both basic clusters, and the above described 27-mer, which contains only one basic cluster, E. coli cultures were grown for 5 hours in the presence of varying doses of the two polypeptides.
Dose response of E. coli 0111 cells in the presence of LF polypeptides. E. coli were cultured as described above, for 5 hr in the presence of varying concentrations of polypeptide 33-mer or the related 27-mer. Inhibition of culture growth was determined spectrophotometrically as described earlier.

E. coli 0111 [4] = assay: Potentiation of Rifampicin by LF polypeptides; conditions: 5 μM polypeptide + 0.9 μg/ml rifampicin, 6 hr
Description: E. coli cultures were exposed to sub-optimal doses of Rifampicin in the presence or absence of sub-optimal doses of the indicated polypeptides (FIG. 5), and were incubated for 6 hours, at which point CFU were determined.
E. coli 0111 were grown overnight as described above. Overnight cultures were then diluted 1:16,000 in 1% BP/PBS containing 0.9 μg/ml Rifampicin (Sigma-Aldrich Fine chemicals) and 5 μM LF polypeptides as indicated. Control cultures were those not exposed to any polypeptide. The diluted cultures were then incubated at 37° C. for 6 hr with aeration by shaking. The number of viable bacteria were then determined by dilution plating samples from each group and subsequently counting colony forming units (CFU). All values represent the average of duplicate independent experiments.

RAW264.7 cells = assay: Cytotoxicity of LF-33 to RAW264.7 cells (MTT); type: cell-based, murine; conditions: 10 μM, highest concentration used

Compound: Polymyxin B [reference compound]
- IC50 (Lipid A): 0.19 µM
- IC50 (P. aer. LPS): 3.91 µM
- IC50 (E. coli LPS): 1.95 µM
- IC50 (N. min. LPS): > 100 µM
- IC50 (S. abortus LPS): 18.2 µM
- TNF-α secretion induced by P. aer. LPS (RAW 264.7 cells; control 4,428): 4,206 +/− 956 pg/ml
- TNF-α secretion, P. aer. LPS mixing with serum first (RAW 264.7 cells; control 4,428): 4,206 +/− 956 pg/ml
- TNF-α secretion induced by S. abortus LPS (RAW 264.7 cells; control 5,726): 4,090 +/− 806 pg/ml
- TNF-α secretion induced by N. min. LPS (RAW 264.7 cells; control 8,817): 8,181 +/− 1,032 pg/ml

Compound: pepsinolytic fragment: 6 kDa fragment released from LF by pepsin, amino acids 1-47, no amide bond between amino acid 11 and 12 [reference compound]
- number of viable bacteria, pepsinolytic versus cathepsinolytic fragment (E. coli 0111 [1]; 100 μM polypeptide): more than 1,000 fold
- minimum inhibitory concentration (MIC) (E. coli 0111 [1]; E. coli 0111, physiological ionic strength, 6 h, CFU): 11 to 33 µM
- MIC previously reported (E. coli 0111 [2]): 18 µM

Compound: CSCC[C@H](NC(=O)[C@H](CC(N)=O)NC(=O)[C@H](CCCNC(=N)N)NC(=O)[C@H](CCC(N)=O)NC(=O)[C@H](Cc1c[nH]c2ccccc12)NC(=O)[C@H](CCC(N)=O)NC(=O)[C@H](Cc1ccccc1)NC(=O)[C@H](CS)NC(=O)[C@H](CCCCN)NC(=O)[C@@H](NC(=O)[C@H](C)NC(=O)[C@H](CCC(=O)O)NC(=O)[C@@H]1CCCN1C(=O)[C@H](CCC(N)=O)NC(=O)[C@H](CO)NC(=O)[C@@H](NC(=O)[C@H](C)NC(=O)[C@H](CS)NC(=O)[C@H](Cc1c[nH]c2ccccc12)NC(=O)[C@H](CCC(N)=O)NC(=O)[C@@H](NC(=O)[C@H](CO)NC(=O)[C@H](CCCNC(=N)N)NC(=O)[C@H](CCCNC(=N)N)NC(=O)[C@H](CCCNC(=N)N)NC(=O)[C@H](CCCNC(=N)N)NC(=O)CN)C(C)C)C(C)C)[C@@H](C)O)C(=O)N[C@@H](CCCNC(=N)N)C(=O)N[C@@H](CCCCN)C(=O)N[C@H](C(=O)N[C@@H](CCCNC(=N)N)C(=O)NCC(=O)N1CCC[C@H]1C(=O)O)C(C)C [LF-33] (H-GRRRRSVQWCAVSQPEATKCFQWQRNMRKVRGP-OH)
- % killed, average (M. smegmatis BH1; 50 μM LF-33, 16 hours, average of three experiments, listed as 33-mer): approximately 94%
- anti-mycobacterial MIC (M. smegmatis BH1; M. smegmatis, 16 hours): not more than 10 μM
- minimum inhibitory concentration (MIC) (E. coli 0111 [3]): 2 to 5 µM
- viable bacteria relative to the rifampicin treatment alone (E. coli 0111 [4]): approximately 1%
- cytotoxicity to RAW264.7 cells (RAW264.7 cells): no cytotoxicity
